Assay results reported in US12589170B2, “Devices and methods for radiopharmaceutical synthesis” (VANDERBILT UNIVERSITY, priority 2019, dated 2026).

Tests used:
rat brain = assay: microPET imaging of rat brain with [18F]fallypride produced in the microfluidic chip; assay type: in vivo; settings: dose of about 300 μCi, microPET for about 2 hours
Excerpt: To further verify the utility of the resulting [^18F]fallypride, we produced (using the integrated microfluidic chip) a dose of about 300 μCi with about 19.55 Ci/μmol (723.35 GBq/μmol) of specific activity and about 98.62% of radiochemical purity, and obtained PET data from a rat brain. The time point used to calculate the specific activity was at the end of production, namely the time when the purified [^18F]fallypride was retrieved from chip. The rat was brought to the imaging lab to habituate about 3 hours prior to imaging. About 0.1 ml purified [^18F] fallypride was filtered through an about 0.45 μm filter (Millex-HV) and about 0.9 ml saline was added to formulate the PET probe used for rat injection. […] The accumulation and pharmacokinetics of [^18F]fallypride were as expected when evaluated in the rat brain.

[1] = Stability of final product at room temperature examined by radio-HPLC; assay type: physicochemical; settings: duration up to about 4 hours
Experimental: A Hitachi HPLC (LaChrom Elite, Pump L-2130) equipped with a wavelength UV detector (L-2400, 254 nm) and inline radiation detector (Inline Carroll & Ramsey) was used to evaluate radiochemical purity. A C18 column (Phenomenex Gemini, particle size about 10 μm, 150×4.6 mm) was used. For the mobile phase, acetonitrile (referred as A1) mixed with water containing about 0.1% trifluoroacetic acid (TFA) was used with gradient as following: 0% A1/100% TFA for about 0-2 min, 100% A1/0% TFA for about 8-10 min. The flow rate was constantly set as about 1 mL/min. Moreover, radiochemical purity was also examined by radio thin layer chromatography (TLC) using ITLC (instant TLC) paper strips (Varian). […] The value of radioactivity was measured using a calibrated dose calibrator (Capintec, CRC-25PET). The radiochemical yields were evaluated as a percentage of total activity of ^68GaCl3 initially delivered from the generator. Unless specified elsewhere, all efficiencies are calculated based on decay-corrected values.
A radio-TLC chromatogram of synthesized product is shown in FIG. 6 and the ^68Ga-labelled peptide has an approximate retardation factor of about 0.8-1.0. Using the microfluidic device, the incorporation efficiency of 100% can be consistently achieved as determined by radio HPLC chromatogram (FIG. 7B). […]

accumulation and pharmacokinetics in the rat brain (rat brain) | Compound | stability of final product (retention time, product purity by radio-HPLC) [1]
as expected | C=CCN1CCC[C@H]1CNC(=O)c1cc(CCC[18F])cc(OC)c1OC [[^18F]fallypride] | –
– | O=C([O-])CN(CCN(CC(=O)[O-])Cc1cc(CCC(=O)NCCCCCC(=O)NCCCC[C@H](NC(=O)N[C@@H](CCC(=O)O)C(=O)O)C(=O)O)ccc1[O-])Cc1cc(CCC(=O)O)ccc1[O-].[68Ga+3].[OH3+] [^68Ga-PSMA-11] | no discrepancy on retention time or product purity was observed
